Test results taken from patent publication US6369057B1, “Quinoxalines, processes for their preparation and their use” (Aventis Pharma Deutschland GmbH, priority 1991, dated 2002).
Where a name gives a salt, the structure may show the parent alone.

Legend:
[1] = tested on: HIV; experiment: Test of preparations against HIV in cell culture (T-cell culture assay); assay type: cell-based; settings: lowest concentration where no giant cells were observed; HIV-infected lymphocytes from donor blood, 3 days at 37° C.
Method: Test of Preparations Against HIV in Cell Culture
Complete medium additionally contains 20% fetal calf serum and 40 IU/ml recombinant interleukin 2.
Lymphocytes which have been isolated from fresh donor blood by means of Ficoll gradient centrifugation are cultured for 36 hours in complete medium with an addition of 2 μg/ml phytohemagglutinin (Wellcome) at 37° C. under 5% of CO2. After 10% of DMSO has been added, the cells are frozen at a density of 5 [formula]10^6 and stored in liquid nitrogen. For the test, the cells are defrosted, washed in RPMI medium and cultured for 3-4 days in the complete medium.
The test preparations were dissolved in DMSO at a concentration of 16.7 mg/ml and diluted in complete medium to 1 mg/ml.
0.4 ml of medium was introduced into 24-multiwell dishes. 0.1 ml of the dissolved preparation was added to the upper row of the dish, and, by transferring 0.1 ml portions, a geometric dilution series was established. Controls without preparation always contained 0.4 ml of complete medium containing 0.5% of DMSO. Lymphocyte cultures with a cell density of 5 [formula]10^5 cells/ml were infected by adding 1/50 volume supernatant from HIV-infected lymphocyte cultures. The titer of these culture supernatants was determined by end-point titration as 1-5 [formula]10^6 infectious units/ml. After 30 minutes' incubation at 37° C., the infected lymphocytes were removed by centrifugation and taken up in an equal volume of medium. From this cell suspension, 0.6 ml aliquots were transferred into all wells of the test plate. The mixtures were incubated for 3 days at 37° C.
The infected cell cultures were examined under the microscope for the presence of giant cells, which indicate active virus multiplication in the culture. The lowest concentration of preparation where no giant cells were observed was determined as inhibitory concentration against HIV. As a control, the supernatants from the culture plates were tested for the presence of HIV antigen with the aid of an HIV antigen test following the manufacturer's instructions (Organon).

[2] = molecular target: T1, HIV reverse transcriptase (RT) (Human immunodeficiency virus type 1 group M subtype B, UniProt P03366); experiment: Assay for HIV reverse transcriptase inhibition (scintillation proximity assay); assay type: biochemical; settings: RT from HIV cloned in E. coli; SPA, 60 minutes (37° C.)
T1 construct: The enzyme RT (from HIV cloned in E. coli); purchased HT-Biotechnology Ltd, Cambridge, UK; host or cells: E. coli
Method: Assay of the Substances for HIV Reverse Transcriptase Inhibition
The activity of reverse transcriptase (RT) was determined with the aid of a scintillation proximity assay (SPA).
The reagent kit for the RT-SPA was obtained from Amersham/Buchler (Braunschweig).
The enzyme RT (from HIV cloned in E. coli) originated from HT-Biotechnology Ltd, Cambridge, UK.
The assay was carried out using the manufacturer's (Amersham) protocol manual, with the following modifications: bovine serum albumin was added to the assay buffer to give an end concentration of 0.5 mg/ml the assay was carried out in Eppendorf reaction vessels, using 100 μl volume per batch the manufacturer's RT concentrate (5000 U/ml) was diluted in Tris-HCl buffer 20 mM; pH 7.2; 30% of glycerol, to an activity of 15 U per ml the incubation time for the mixtures was 60 minutes (37° C.) after stopping the reaction and “developing” with the bead suspension, 130 μl of mixture were transferred to 4.5 ml of Tris-HCl buffer, 10 mM; pH 7.4; 0.15 M NaCl, and the tritium activity was measured by means of a [formula]-counter.
For a pre-assay for inhibitory activity, the substances were dissolved in DMSO (stock solution c=1 mg/ml), and tested as a 10^−1, 10^−2, 10^−3, etc., dilution in DMSO.
To determine IC50 values, the inhibitor stock solutions were diluted further in Tris-HCl buffer, 50 mM, pH 8, and tested in suitable concentrations.
The concentration corresponding to a 50% enzyme inhibition was determined from a plot of RT activity versus log Clnh.

melting point | SMILES | T-cell culture assay MIC [1] | Reverse Transcriptase Assay IC50 [2]
≥ 90 °C (dec.) | CC(C)CC1Nc2c(S(=O)(=O)Oc3ccccc3)ccc(N3CCN(C)CC3)c2NC1=O (stereo not shown) (as salt: hydrochloride) [XXXII, 8-(4-Methyl-1-piperazinyl)-3-(2-methylpropyl)-5-phenoxysulfonyl-3,4-dihydroquinoxalin-2(1H)-one] |  | 
167 °C | CC1C(=O)Nc2ccc(Cl)cc2N1C1CC1 (racemic) [Example XVIII, (3RS)-6-Chloro-4-N-(cyclopropyl)-3-methyl-3,4-dihydroquinoxalin-2(1H)-one] |  | 
92 to 93 °C | CC(C)=CCN1c2ccccc2NC(=O)C1C (racemic) [XXV, (3RS)-3-Methyl-4-N-(3-methyl-2-buten-1-yl)-3,4-dihydroquinoxalin-2(1H)-one] |  | 
 | C=CCOC(=O)N1c2cc(Cl)ccc2NC(=O)C1C (stereo not shown) [Example 3-7] | 0.08 µg/mL | 0.08 µg/mL
 | CCOC(=O)N1c2cc(Cl)ccc2NC(=O)C1C (stereo not shown) [Example 3-23] | 0.08 µg/mL | 0.1 to 1 µg/mL
 | CCCOC(=O)N1c2cc(Cl)ccc2NC(=O)C1C (stereo not shown) [Example 3-24] | 0.08 µg/mL | 0.1 to 1 µg/mL
 | CCCCOC(=O)N1c2cc(Cl)ccc2NC(=O)C1C (stereo not shown) [Example 3-25] | 0.4 µg/mL | 0.1 to 1 µg/mL
 | CCC1C(=O)Nc2ccc(Cl)cc2N1CC=C(C)C (stereo not shown) [Example 3-29] | <0.4 µg/mL | 0.1 to 1 µg/mL
 | C=C(C)OC(=O)N1c2cc(Cl)ccc2NC(=O)C1CC (stereo not shown) [Example 3-30] | <0.01 µg/mL | 0.025 µg/mL
 | C=CCOC(=O)N1c2cc(Cl)ccc2NC(=O)C1CC (stereo not shown) [Example 3-32] | <0.4 µg/mL | approx. 0.1 μg/ml
 | C=C(C)OC(=O)N1c2cc(Cl)ccc2NC(=O)C1CC(C)C (stereo not shown) [Example 3-49] | <0.8 µg/mL | approx. 1 μg/ml
 | C=C(C)OC(=O)N1c2ccc(Cl)cc2NC(=O)C1C(C)C (stereo not shown) [Example 3-57] | <0.8 µg/mL | approx. 1 μg/ml
 | CSCC1C(=O)Nc2ccc(Cl)cc2N1CC=C(C)C (stereo not shown) [Example 3-75] | <0.8 µg/mL | 0.1 to 1 µg/mL
 | C=C(C)OC(=O)N1c2cc(Cl)ccc2NC(=O)C1CSC (stereo not shown) [Example 3-76] | <0.08 µg/mL | 0.018 µg/mL
 | C=C(C)OC(=O)N1c2cc(Cl)ccc2NC(=O)C1C(C)CC (stereo not shown) [Example 3-81] | 0.08 µg/mL | approx. 1 μg/ml
 | CC(C)=CCN1c2cc(Cl)ccc2NC(=O)C1(C)C [Example 6-1] | 0.4 µg/mL | approx. 1 μg/ml
 | CC(C)=CCN1c2cccc(C)c2NC(=O)C1(C)C [Example 6-16] | <0.8 µg/mL | approx. 1 μg/ml
 | C=C(C)OC(=O)N1c2cccc(C)c2NC(=O)C1(C)C [Example 6-17] | <0.8 µg/mL | 0.1 to 1 µg/mL
 | CC(C)=CCN1c2ccc(C)c(C)c2NC(=O)C1(C)C [Example 6-27] | <0.4 µg/mL | approx. 1 μg/ml
 | C=C(C)OC(=O)N1c2ccc(C)c(C)c2NC(=O)C1(C)C [Example 6-35] | <0.08 µg/mL | 0.1 to 1 µg/mL
 | CC(C)OC(=O)N1c2cc(Cl)ccc2NC(=O)C1(C)C [Example 6-50] | <0.01 µg/mL | 0.01 to 0.1 µg/mL
 | CC(C)=CCN1c2cc(Cl)ccc2NC(=S)C1C (stereo not shown) [Example 7-2] | <0.01 µg/mL | 0.07 µg/mL

melting point | SMILES | T-cell culture assay MIC [1] | Reverse Transcriptase Assay IC50 [2]
 | CC1C(=S)Nc2ccc(Cl)cc2N1Cc1ccccc1 (stereo not shown) [Example 7-3] | <0.01 µg/mL | 0.07 µg/mL
 | CC(C)=CCN1c2cc(Cl)ccc2NC(=S)C1(C)C [Example 7-7] | 0.04 µg/mL | 0.1 µg/mL
 | C=CCOC(=O)N1c2cc(Cl)ccc2NC(=S)C1C (stereo not shown) [Example 7-10] | <0.04 µg/mL | 0.11 µg/mL
 | C=C(C)OC(=O)N1c2cc(Cl)ccc2NC(=S)C1(C)C [Example 7-11] | <0.01 µg/mL | 0.01 µg/mL
 | C=C(C)OC(=O)N1c2ccc(Cl)cc2NC(=S)C1(C)C [Example 7-12] | <0.8 µg/mL | approx. 1 μg/ml
 | CC1(C)Nc2cc(Cl)ccc2NC1=S [Example 7-13] | <0.08 µg/mL | 0.1 to 1 µg/mL
 | C=C(C)OC(=O)N1c2cc(Cl)ccc2NC(=S)C1CC (stereo not shown) [Example 7-14] | <0.08 µg/mL | 0.01 to 0.1 µg/mL
 | CC(C)=CCN1c2cc(C)c(C)cc2NC(=S)C1(C)C [Example 7-16] | 0.4 µg/mL | approx. 1 μg/ml
 | C=CCOC(=O)N1c2cc(Cl)ccc2NC(=S)C1(C)C [Example 7-21] | <0.01 µg/mL | 0.01 to 0.1 µg/mL
 | CC(C)OC(=O)N1c2cc(Cl)ccc2NC(=S)C1(C)C [Example 7-22] | <0.01 µg/mL | 0.01 to 0.1 µg/mL
 | C=C(C)OC(=O)N1c2cc(Cl)ccc2NC(=S)C1CSC (stereo not shown) [Example 7-23] | <0.01 µg/mL | 0.01 to 0.1 µg/mL
 | C#CCN1c2cc(Cl)ccc2NC(=O)C1C (stereo not shown) [Example 10-9] | <0.8 µg/mL | approx. 1 μg/ml
 | CC1C(=O)Nc2ccc(Cl)cc2N1Cc1ccccn1 (stereo not shown) [Example 10-10] | 0.08 µg/mL | approx. 1 μg/ml
 | CC1C(=O)Nc2ccc(Cl)cc2N1Cc1ccco1 (stereo not shown) [Example 10-13] | 0.08 µg/mL | approx. 1 μg/ml
 | CC1C(=O)Nc2ccc(Cl)cc2N1Cc1cccc([N+](=O)[O-])c1 (stereo not shown) [Example 10-17] | 0.8 µg/mL | approx. 1 μg/ml
 | CC1C(=O)Nc2ccc(Cl)cc2N1Cc1ccccc1[N+](=O)[O-] (stereo not shown) [Example 10-18] | <0.8 µg/mL | 0.1 to 1 µg/mL
 | CC1C(=O)Nc2ccc(Cl)cc2N1Cc1cccc(Cl)c1 (stereo not shown) [Example 10-20] | <0.8 µg/mL | 0.1 to 1 µg/mL
 | CC1C(=O)Nc2ccc(Cl)cc2N1Cc1ccccc1Cl (stereo not shown) [Example 10-21] | <0.8 µg/mL | 0.1 to 1 µg/mL
 | CC1C(=O)Nc2ccc(Cl)cc2N1Cc1c(Cl)cccc1Cl (stereo not shown) [Example 10-27] | 0.8 µg/mL | 0.1 to 1 µg/mL
 | CC1C(=O)Nc2ccc(Cl)cc2N1Cc1cc(Cl)cc(Cl)c1 (stereo not shown) [Example 10-28] | <0.8 µg/mL | 0.1 to 1 µg/mL
 | CC(C)OC(=O)N1c2cc(Cl)ccc2NC(=O)C1C (stereo not shown) [Example 11-11] | 0.01 µg/mL | 0.1 to 1 µg/mL
 | C=C(C)OC(=O)N1c2cc(Cl)ccc2NC(=O)[C@@H]1C [Example XIII, (3S)-6-Chloro-N-(isopropenyloxycarbonyl)-3-methyl-3,4-dihydroquinoxalin-2(1H)-one] | <0.16 µg/mL | 0.04 µg/mL
